#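 Five concentrations, 48 hours, 96-well plates. Here, GI50 denotes the concentration required for 50% inhibition of growth. TGI is the concentration that stops growth completely.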
# Columns and labels:
# Experiment in all cases: NCI anticancer screen, dose series, 48 h
# A549 NSCLC = tested on: A549 NSCLC
# CAKI-1 renal = tested on: CAKI-1 renal
# EKVX NSCLC = tested on: EKVX NSCLC
# HCC-2998 colon = tested on: HCC-2998 colon
# HOP-92 NSCLC = tested on: HOP-92 NSCLC
# NCI-H226 lung = tested on: NCI-H226 lung
# NCI/ADR-RES ovarian = tested on: NCI/ADR-RES ovarian
# OVCAR-8 ovarian = tested on: OVCAR-8 ovarian
# SNB-75 CNS = tested on: SNB-75 CNS
# SW-620 colon = tested on: SW-620 colon
smiles,measurement,setting,value
COc1ccccc1NC(=O)CC(=O)N1N=C(N2c3ccccc3Sc3ccccc32)CC1c1ccccc1 (stereo not given),TGI,A549 NSCLC,> 100 µM
same,TGI,CAKI-1 renal,> 100 µM
same,TGI,EKVX NSCLC,> 100 µM
same,TGI,HCC-2998 colon,> 100 µM
same,TGI,HOP-92 NSCLC,> 100 µM
same,TGI,NCI-H226 lung,> 100 µM
same,TGI,NCI/ADR-RES ovarian,> 100 µM
same,TGI,OVCAR-8 ovarian,> 100 µM
same,TGI,SNB-75 CNS,> 100 µM
same,TGI,SW-620 colon,> 100 µM
S=c1[nH]n2c(CCCCCCCCc3nnc4sc(=S)[nH]n34)nnc2s1,TGI,A549 NSCLC,> 100 µM
same,TGI,CAKI-1 renal,> 100 µM
same,TGI,EKVX NSCLC,> 100 µM
same,TGI,HCC-2998 colon,> 100 µM
same,TGI,HOP-92 NSCLC,> 100 µM
same,TGI,NCI-H226 lung,> 100 µM
same,TGI,NCI/ADR-RES ovarian,> 100 µM
same,TGI,OVCAR-8 ovarian,> 100 µM
same,TGI,SNB-75 CNS,> 100 µM
same,TGI,SW-620 colon,> 100 µM
CC(=O)Oc1c(N2CCCCC2)c(C(=O)c2ccccc2)c(O)c2ccn(N(C)C)c12,TGI,A549 NSCLC,> 100 µM
same,TGI,CAKI-1 renal,33.8 µM
same,TGI,EKVX NSCLC,31.2 µM
same,TGI,HCC-2998 colon,37.2 µM
same,TGI,HOP-92 NSCLC,88.6 µM
same,TGI,NCI-H226 lung,32.4 µM
same,TGI,NCI/ADR-RES ovarian,42.3 µM
same,TGI,OVCAR-8 ovarian,58.1 µM
same,TGI,SNB-75 CNS,32.5 µM
same,TGI,SW-620 colon,35.1 µM
COC1=CC2(CC(OC)=C1OC)OC21COc2ccccc2C1=O (stereo not given),TGI,A549 NSCLC,> 100 µM
same,TGI,CAKI-1 renal,> 100 µM
same,TGI,EKVX NSCLC,> 100 µM
same,TGI,HCC-2998 colon,> 100 µM
same,TGI,HOP-92 NSCLC,> 100 µM
same,TGI,NCI-H226 lung,> 100 µM
same,TGI,NCI/ADR-RES ovarian,> 100 µM
same,TGI,OVCAR-8 ovarian,> 100 µM
same,TGI,SNB-75 CNS,> 100 µM
same,TGI,SW-620 colon,> 100 µM
C=CCN(CCNS(=O)(=O)c1ccc(C)cc1)S(=O)(=O)c1ccc(C)cc1,TGI,A549 NSCLC,> 100 µM
same,TGI,CAKI-1 renal,> 100 µM
same,TGI,EKVX NSCLC,96.9 µM
same,TGI,HCC-2998 colon,> 100 µM
same,TGI,HOP-92 NSCLC,> 100 µM
same,TGI,NCI-H226 lung,> 100 µM
same,TGI,NCI/ADR-RES ovarian,> 100 µM
same,TGI,OVCAR-8 ovarian,> 100 µM
same,TGI,SNB-75 CNS,> 100 µM
same,TGI,SW-620 colon,> 100 µM
CCCCCCCCCCCCCCCCOP(=O)(O)OCC(N)C(=O)O (stereo not given),TGI,A549 NSCLC,53.1 µM
same,TGI,CAKI-1 renal,28 µM
same,TGI,EKVX NSCLC,> 100 µM
same,TGI,HCC-2998 colon,> 100 µM
same,TGI,HOP-92 NSCLC,38.4 µM
same,TGI,NCI-H226 lung,50.4 µM
same,TGI,NCI/ADR-RES ovarian,> 100 µM
same,TGI,OVCAR-8 ovarian,> 100 µM
same,TGI,SNB-75 CNS,45.7 µM
same,TGI,SW-620 colon,38.6 µM
O=C(N/N=C\c1ccc(N(CCCl)CCCl)cc1[N+](=O)[O-])c1cccnc1,GI50,A549 NSCLC,> 100 µM
same,TGI,A549 NSCLC,> 100 µM
same,GI50,CAKI-1 renal,> 100 µM
same,TGI,CAKI-1 renal,> 100 µM
same,GI50,EKVX NSCLC,> 100 µM
same,TGI,EKVX NSCLC,> 100 µM
same,GI50,HCC-2998 colon,> 100 µM
same,TGI,HCC-2998 colon,> 100 µM
same,GI50,HOP-92 NSCLC,> 100 µM
same,TGI,HOP-92 NSCLC,> 100 µM
same,GI50,NCI-H226 lung,> 100 µM
same,TGI,NCI-H226 lung,> 100 µM
same,GI50,NCI/ADR-RES ovarian,> 100 µM
same,TGI,NCI/ADR-RES ovarian,> 100 µM
same,GI50,OVCAR-8 ovarian,> 100 µM
same,TGI,OVCAR-8 ovarian,> 100 µM
same,GI50,SNB-75 CNS,> 100 µM
same,TGI,SNB-75 CNS,> 100 µM
same,GI50,SW-620 colon,> 100 µM
same,TGI,SW-620 colon,> 100 µM
Nc1[nH]nc2nc3ccccc3nc12,TGI,A549 NSCLC,> 100 µM
same,TGI,CAKI-1 renal,> 100 µM
same,TGI,EKVX NSCLC,> 100 µM
same,TGI,HCC-2998 colon,> 100 µM
same,TGI,HOP-92 NSCLC,> 100 µM
same,TGI,NCI-H226 lung,> 100 µM
same,TGI,NCI/ADR-RES ovarian,> 100 µM
same,TGI,OVCAR-8 ovarian,> 100 µM
same,TGI,SNB-75 CNS,> 100 µM
same,TGI,SW-620 colon,> 100 µM
COc1ccc(N=NC(=O)NC(CC(C)C)C(N)=O)cc1 (stereo not given),TGI,A549 NSCLC,> 31.6 µM
same,TGI,CAKI-1 renal,> 31.6 µM
same,TGI,EKVX NSCLC,> 100 µM
same,TGI,HCC-2998 colon,> 31.6 µM
same,TGI,HOP-92 NSCLC,> 31.6 µM
same,TGI,NCI-H226 lung,> 100 µM
same,TGI,NCI/ADR-RES ovarian,> 100 µM
same,TGI,OVCAR-8 ovarian,> 100 µM
same,TGI,SNB-75 CNS,> 100 µM
same,TGI,SW-620 colon,> 100 µM
CC(C)(C)OC(=O)CN1CCNCCN(CC(=O)OC(C)(C)C)CCNCC1,TGI,A549 NSCLC,> 100 µM
same,TGI,CAKI-1 renal,> 100 µM
same,TGI,EKVX NSCLC,> 100 µM
same,TGI,HCC-2998 colon,> 100 µM
same,TGI,HOP-92 NSCLC,> 100 µM
same,TGI,NCI-H226 lung,> 100 µM
same,TGI,NCI/ADR-RES ovarian,> 100 µM
same,TGI,OVCAR-8 ovarian,> 100 µM
same,TGI,SNB-75 CNS,> 100 µM
same,TGI,SW-620 colon,> 100 µM
NCC(O)CNC(=O)c1ccc(-c2ccc(-c3ccc(C(=O)NCC(O)CN)cc3)o2)cc1 (stereo not given),TGI,A549 NSCLC,> 100 µM
same,TGI,CAKI-1 renal,> 100 µM
same,TGI,EKVX NSCLC,70.3 µM
same,TGI,HCC-2998 colon,96.5 µM
same,TGI,HOP-92 NSCLC,52.1 µM
same,TGI,NCI-H226 lung,55.4 µM
same,TGI,NCI/ADR-RES ovarian,> 100 µM
same,TGI,OVCAR-8 ovarian,> 100 µM
same,TGI,SNB-75 CNS,49.5 µM
same,TGI,SW-620 colon,> 100 µM
CCCCCCCCCCCC[C@@H](O)[C@H]1CCC([C@H](O)CCCCC(=O)CCCCCCCC2=C[C@H](C)OC2=O)O1 (stereo not given in full),TGI,A549 NSCLC,> 50 µM
same,TGI,CAKI-1 renal,> 50 µM
same,TGI,EKVX NSCLC,> 50 µM
same,TGI,HCC-2998 colon,> 50 µM
same,TGI,HOP-92 NSCLC,> 50 µM
same,TGI,NCI-H226 lung,> 50 µM
same,TGI,NCI/ADR-RES ovarian,> 50 µM
same,TGI,OVCAR-8 ovarian,> 50 µM
same,TGI,SNB-75 CNS,> 50 µM
same,TGI,SW-620 colon,> 50 µM
CC(C)=CCc1[nH]c2ccccc2c1C1=C(O)C(=O)C(c2c(CC=C(C)C)[nH]c3ccccc23)=C(O)C1=O,TGI,A549 NSCLC,11.2 µM
same,TGI,CAKI-1 renal,6.26 µM
same,TGI,EKVX NSCLC,7.59 µM
same,TGI,HCC-2998 colon,3.29 µM
same,TGI,HOP-92 NSCLC,4.04 µM
same,TGI,NCI-H226 lung,4.6 µM
same,TGI,NCI/ADR-RES ovarian,17.3 µM
same,TGI,OVCAR-8 ovarian,7.78 µM
same,TGI,SNB-75 CNS,4.14 µM
same,TGI,SW-620 colon,14.9 µM
CSc1ccn(C2CC(F)C(CO)O2)c(=O)n1 (stereo not given),TGI,A549 NSCLC,> 100 µM
same,TGI,CAKI-1 renal,> 100 µM
same,TGI,EKVX NSCLC,> 100 µM
same,TGI,HCC-2998 colon,> 100 µM
same,TGI,HOP-92 NSCLC,> 100 µM
same,TGI,NCI-H226 lung,> 100 µM
same,TGI,NCI/ADR-RES ovarian,> 100 µM
same,TGI,OVCAR-8 ovarian,> 100 µM
same,TGI,SNB-75 CNS,> 100 µM
same,TGI,SW-620 colon,> 100 µM
Cc1nc(C)c(N2CCNCC2)c(=O)[nH]1,TGI,A549 NSCLC,> 100 µM
same,TGI,CAKI-1 renal,> 100 µM
same,TGI,EKVX NSCLC,> 100 µM
same,TGI,HCC-2998 colon,> 100 µM
same,TGI,HOP-92 NSCLC,> 100 µM
same,TGI,NCI-H226 lung,> 100 µM
same,TGI,NCI/ADR-RES ovarian,> 100 µM
same,TGI,OVCAR-8 ovarian,> 100 µM
same,TGI,SNB-75 CNS,> 100 µM
same,TGI,SW-620 colon,> 100 µM
COC(=O)c1ccc(C)cc1CC1Cc2ccc(C)cc2C1=O (stereo not given),TGI,A549 NSCLC,93.5 µM
same,TGI,CAKI-1 renal,> 100 µM
same,TGI,EKVX NSCLC,36.6 µM
same,TGI,HCC-2998 colon,32.3 µM
same,TGI,HOP-92 NSCLC,61.4 µM
same,TGI,NCI-H226 lung,27.2 µM
same,TGI,NCI/ADR-RES ovarian,18.3 µM
same,TGI,OVCAR-8 ovarian,57.5 µM
same,TGI,SNB-75 CNS,43.8 µM
same,TGI,SW-620 colon,> 100 µM
O=C(/C=C/c1cccc(Oc2ccccc2)c1)NCc1ccc(C(=O)NCCc2ccccc2)cc1,TGI,A549 NSCLC,> 100 µM
same,TGI,CAKI-1 renal,> 100 µM
same,TGI,EKVX NSCLC,> 100 µM
same,TGI,HCC-2998 colon,> 100 µM
same,TGI,HOP-92 NSCLC,> 100 µM
same,TGI,NCI-H226 lung,> 100 µM
same,TGI,NCI/ADR-RES ovarian,> 100 µM
same,TGI,OVCAR-8 ovarian,> 100 µM
same,TGI,SNB-75 CNS,92.6 µM
same,TGI,SW-620 colon,> 100 µM

# — PubChem BioAssay (NCI)
